From US20060142312A1, “C6-aryl and heteroaryl substituted pyrido[2,3-D] pyrimidin-7-ones” (PFIZER INC, priority 2004, published 2006)

Tested on: neointima formation
Conditions: in rats; cited from earlier work
For `COc1ccc(CNc2nc(N(CCO)CCO)nc3c2ncn3C(C)C)cc1` [CVT-313], the “inhibition of neointima formation” value is given as “greater than 80%”.

Tested on: not given
Conditions: not given
`O=c1c(Cc2ccccc2)cc2cnc(NCCCn3ccnc3)nc2n1C1CCCC1` [Example 50, 6-Benzyl-8-cyclopentyl-2-(3-imidazol-1-yl-propylamino)-8H-pyrido[2,3-d]pyrimidin-7-one] gave a melting point of 142 to 144 °C.
In the case of `O=c1c(Cc2ccccc2)cc2cnc(NC3CCNCC3)nc2n1C1CCCC1` [Example 46, 6-Benzyl-8-cyclopentyl-2-(piperidin-4-ylamino)-8H-pyrido[2,3-d]pyrimidin-7-one], the melting point is reported as 75 °C.
In the case of `CC(C)S(=O)(=O)N1CCC(Nc2ncc3cc(Cc4ccccn4)c(=O)n(C4CCCC4)c3n2)CC1` [Example 35, 8-Cyclopentyl-2-[1-(propane-2-sulfonyl)-piperidin-4-ylamino]-6-pyridin-2-ylmethyl-8H-pyrido[2,3-d]pyrimidin-7-one], the melting point is reported as 216 to 219 °C.
Molecule `CS(=O)(=O)N1CCC(Nc2ncc3cc(Cc4ccccn4)c(=O)n(C4CCCC4)c3n2)CC1` [Example 27, 8-Cyclopentyl-2-(1-methanesulfonyl-piperidin-4-ylamino)-6-pyridin-2-ylmethyl-8H-pyrido[2,3-d]pyrimidin-7-one] has a melting point of 220 to 223 °C.
In the case of `CCCN1CCC(Nc2ncc3cc(Cc4nccs4)c(=O)n(C4CCCC4)c3n2)CC1` [Example 86, 8-Cyclopentyl-2-(1-propyl-piperidin-4-ylamino)-6-thiazol-2-ylmethyl-8H-pyrido[2,3-d]pyrimidin-7-one], the melting point is reported as 149 to 152 °C.
Molecule `CCCN1CCC(Nc2ncc3cc(Cc4ccccn4)c(=O)n(C4CCCC4)c3n2)CC1` [Example 88, 8-Cyclopentyl-2-(1-propyl-piperidin-4-ylamino)-6-pyridin-2-ylmethyl-8H-pyrido[2,3-d]pyrimidin-7-one] has a melting point of 133 to 134 °C.
In the case of `Cc1ccccc1Cc1cc2cnc(NCCN3CCOCC3)nc2n(C2CCCC2)c1=O` [Example 73, 8-Cyclopentyl-6-(2-methyl-benzyl)-2-(2-morpholin-4-yl-ethylamino)-8H-pyrido[2,3-d]pyrimidin-7-one], the melting point is reported as 134 to 137 °C.
In the case of `Cc1ccc(Cc2cc3cnc(NCCN4CCOCC4)nc3n(C3CCCC3)c2=O)cc1` [Example 75, 8-Cyclopentyl-6-(4-methyl-benzyl)-2-(2-morpholin-4-yl-ethylamino)-8H-pyrido[2,3-d]pyrimidin-7-one], the melting point is reported as 88 to 91 °C.
With `Cc1cccc(Cc2cc3cnc(NC4CCC(N(C)C)CC4)nc3n(C3CCCC3)c2=O)c1` (stereo not shown) [Example 65, 8-Cyclopentyl-2-(4-dimethylamino-cyclohexylamino)-6-(3-methyl-benzyl)-8H-pyrido[2,3-d]pyrimidin-7-one] the melting point was 191 to 194 °C.
For `CN(C)c1ncc2cc(Cc3ccccc3)c(=O)n(C3CCCC3)c2n1` [Example 49, 6-Benzyl-8-cyclopentyl-2-dimethylamino-8H-pyrido[2,3-d]pyrimidin-7-one], the melting point was 115 to 117 °C.
With `Cc1c(C(O)c2ccccc2)c(=O)n(C2CCCC2)c2nc(Nc3ccc(N4CCNCC4)cc3)ncc12` (stereo not shown) [Example 31, 8-Cyclopentyl-6-(hydroxy-phenyl-methyl)-5-methyl-2-(4-piperazin-1-yl-phenylamino)-8H-pyrido[2,3-d]pyrimidin-7-one] the melting point was 185 °C (dec.).
With `Cc1ccc(Cc2cc3cnc(NCCCN4CCOCC4)nc3n(C3CCCC3)c2=O)cc1` [Example 76, 8-Cyclopentyl-6-(4-methyl-benzyl)-2-(3-morpholin-4-yl-propylamino)-8H-pyrido[2,3-d]pyrimidin-7-one] the melting point was 114 to 116 °C.
